Results reported in publication PMC7956476, “Quinoline Functionalized Schiff Base Silver (I) Complexes: Interactions with Biomolecules and In Vitro Cytotoxicity, Antioxidant and Antimicrobial Activities” (Molecules, 2021).
Where two headings read alike, the source gives them in different places.

What was measured:
[1] = test system: Staphylococcus aureus ATCC 700699 (methicillin-resistant); assay: Minimum inhibitory concentration (MIC), spotting on Müeller–Hinton agar; format: cell-based; details: Gram + Ve; methicillin-resistant S. aureus; 37 °C, 18 h
Method: (§1) Sterilized Nutrient agar medium was first prepared by dissolving 38 g of Müeller–Hinton agar (MHA) (Biolab, Midrand, Africa) in distilled water (1 L). […] The cooled Agar medium was poured in Petri dishes while ensuring a uniform 4 mm depth of the medium and cooling further to ambient temperature.
(§2) These bacteria were inoculated in a sterilized Nutrient Broth (NB) (Biolab, Midrand, Africa) through streak plate technique and incubated at 37 °C for 18 h. The nutrient broth was sterilized by dissolving 1.3 g in distilled water (100 mL). Ca. 10 mL of the nutrient broth was transferred into a cotton wool-plugged test tubes and wrapped with an aluminium foil. […] Following this was the isolation of a single colony of the bacteria and inoculated into a 10 mL sterile NB which was then incubated in a shaking incubator at 37 °C for 18 h. Each of the bacteria strain concentrations was adjusted with sterile distilled water to get a final concentration of 1.5 × 10^8 cfu/mL, i.e., 0.5 Mc Farland’s Standard using a densitometer (Mc Farland Latvia). The bacteria were lawn inoculated on the set MHA Petri dishes using a sterile cotton swab. Screening of L1–L5 and Q1–Q15 for antibacterial activity was first carried out by spotting 5 µL of their solution (prepared from the dissolution of 1000 µg of the L1–L5 and Q1–Q15 in 1 mL dimethyl sulfoxide (DMSO)) on an MHA petri dish and incubated at 37 °C for 18 h. The antibacterial activity was determined by looking out for a clear zone at the spotting point.

[2] = test system: Pseudomonas aeruginosa ATCC 27853; assay: as above; format: cell-based; details: Gram − Ve; P. aeruginosa; 37 °C, 18 h
Method: as §1, §2

[3] = test system: Staphylococcus aureus ATCC 25923; assay: as above; format: cell-based; details: Gram + Ve, S. aureus, 37 °C, 18 h
Method: as §1, §2

[4] = test system: Salmonella typhimurium ATCC 14026; assay: as above; format: cell-based; details: Gram − Ve; S. typhi; 37 °C, 18 h
Method: as §1, §2

[5] = test system: Escherichia coli ATCC 25922; assay: as above; format: cell-based; details: Gram − Ve, E. coli, 37 °C, 18 h
Method: as §1, §2

[6] = test system: CT-DNA-EB adduct; assay: Fluorescence competitive displacement of ethidium bromide from CT-DNA; format: binding, calf; details: for CT-DNA-EB-Complex Ksv (M^−1) × 10^4: Stern–Volmer quenching constant, EB displacement, 25 °C; for CT-DNA-EB-Complex Kq (M^−1S^−1) × 10^12: bimolecular quenching constant, Ksv = Kqτo, τo 10^−8 s; for CT-DNA-EB-Complex Kbin (M^−1) × 10^5: binding constant from double-logarithmic plot
Excerpt: The Stern–Volmer plot approach was used based on the fact that the Stern–Volmer plots for Q1–Q15 (Figure 5c), were linear an indication of only one mechanism for the quenching fluorescence, i.e., either dynamic or static. […] (1) Ksv=Kqτo where Ksv, Kq, and τo represent Stern–Volmer quenching constant, bimolecular quenching constant, and an average lifetime of the fluorophore in the absence of the quencher, respectively. τₒ normally takes about 10^−8 s in biomacromolecules.
The double-logarithmic Equation (2) was used in determining the binding constant of complexes Q1–Q15 and CT-DNA. (2) logFo−F/F=logKb+n logQ
A competitive displacement study was carried out using fluorescence spectroscopy between CT-DNA pre-treated with ethidium bromide (EB) and complexes Q1–Q15 to establish the complexes′ actual mode of binding to CT-DNA. […] The competitive luminescence displacement assay was done using a modified method. Pre-treated 15 µM solution of EB with 15 µM of CT-DNA was prepared in a phosphate buffer of pH 7.2 and left to equilibrate for 30 min. Keeping CT-DNA-EB concentrations constant, different concentrations (0–20 µM) of the complexes were added at 8 min incubation interval at room temperature. The fluorescence quenching ability of CT-DNA bound EB by the complexes were recorded in the wavelength range of 530–700 nm with an excitation wavelength at 525 nm at 25 °C. (6) Fo/F=1+KSVQ=1+KqτoQ
A Stern–Volmer (Equation (6)) was used to evaluate the CT-DNA-EB fluorescence quenching of the complexes. Where Fo and F denote the relative fluorescence intensities of CT-DNA in the absence and presence of the quencher, Ksv, Stern–Volmer quenching constant, [Q], quencher concentration, Kq, bimolecular quenching constant and τo, average lifetime of the fluorophore in the absence of the quencher which is typically equal to 10^−8 s in biomacromolecules.

[7] = molecular target: bovine serum albumin (BSA) (Bos taurus, UniProt P02769); assay: Albumin binding by absorption spectroscopy titration
Excerpt: Bovine serum albumin (BSA) was used as the protein standard in this study because of its close resemblance to human serum albumin (HSA), its stability, high solubility, neutrality in many biochemical reactions and low cost. In protein binding study, absorption spectroscopy titration is a known method used in studying the conformational changes in proteins, and this protein is characterized by an intense absorbance peak at 280 nm depicting the microenvironment around tyrosine and tryptophan residue polarity.
The absorbance assay of albumin binding is a very simple method used in identifying the conformational changes in protein. […] A stock solution of bovine serum albumin (BSA) was prepared by dissolving an appropriate amount of BSA in phosphate buffer saline solution (pH 7.2) under constant stirring for 1 h at 25 °C. It was kept at 4 °C and used within four days. […] The stock solution of the complex was prepared by dissolving 1 mmol of the complexes in DMSO. The absorption titration assay was done by adding different concentrations (0–10 µM) of the complexes to a constant BSA concentration (6 µM). The sample solution was incubated after each addition of the concentrations for 10 min at 25 °C before recording the absorbance at λmax 280 nm.

[8] = Ferric reducing antioxidant power (FRAP) assay; format: biochemical; details: done in triplicate
Excerpt: Antioxidants are important in protecting the human body against damage by reactive oxygen species (ROS). Accumulation of ROS in the cells may lead to damage of the DNA, RNA, and proteins which subsequently leads to several physiological disorders such as cardiovascular disease, diabetes, rheumatism, atherosclerosis, cancer, aging and cell death. […] The free radical scavenging ability of all ligands and complexes in this study were investigated using ferric reducing antioxidant power (FRAP). In antioxidant studies, FRAP assay is often preferred because it is simple, fast, economical, and direct in antioxidant measurement. FRAP assay is based on the electron-donating ability of an antioxidant compound. This involves the reduction of a colorless Fe^3+ tripyridyltriazine complex (Fe^3+ (TPTZ)) to an intense blue-colored Fe^2+ tripyridyltriazine complex (Fe^2+ (TPTZ)) by the electron-donating antioxidants at low pH [69]. The reducing power is to determine the reductive ability of the test compounds.
Antioxidant activity studies of L1–L5 and Q1–Q15 were done using ferric reducing antioxidant power (FRAP) assay. The ferric reducing antioxidant power assay is often used to evaluate the ability of an antioxidant to donate an electron. […] The resulting mixture was incubated at 50 °C for 20 min, and 2.5 mL of 10% trichloroacetic acid was added to acidify the mixture. After that, 1 mL of the acidified mixture was added to 1 mL of distilled water and 0.5 mL of 0.1% FeCl3. The absorbance of the resulting solution was then measured at 700 nm. The antioxidant power of the compounds was expressed as a percentage of ferric reducing antioxidant power Ascorbic acid equivalent, as shown in Equation (4). (4) % FRAP =Absorbance of Absorbance of Sample/Absorbance of Ascorbic Acid ×100

[9] = test system: calf thymus DNA (CT-DNA); assay: CT-DNA electronic absorption titration (Wolfe–Shimer); format: binding
Method: The interaction of the L1–L5 and complexes Q1–Q15 with calf thymus-DNA was carried out in a Phosphate buffer saline solution pH 7.2 stored at 4 °C. The DNA stock solution was prepared by dissolving CT-DNA sodium salt in Phosphate buffer saline solution with continuous stirring overnight. It was filtered and stored at 4 °C and used within four days. […] A fixed amount of the L1–L5 and complexes Q1–Q15 (50 µM) were prepared by dissolving an appropriate amount in DMSO. […] Therefore, in all the experimental of the interaction of L1–L5 and complexes Q1–Q15 with biomolecules, the final concentration of DMSO in the incubation mixture was ~2% (v/v).
The binding modes of L1–L5 and complexes Q1–Q15 to CT-DNA were characterized through electronic absorption titration by varying concentrations of CT-DNA (0–30 µM) in phosphate buffer saline solution against fixed concentrations (20 µM) of L1–L5 and complexes Q1–Q15. […] The absorbance of CT-DNA is cancelled by adding equivalent amounts of CT-DNA to both the tested compounds and the reference solutions.

[10] = intrinsic binding constant, absorption titration, PBS pH 7.2

Chain of bovine serum albumin (BSA) (P02769 25-607): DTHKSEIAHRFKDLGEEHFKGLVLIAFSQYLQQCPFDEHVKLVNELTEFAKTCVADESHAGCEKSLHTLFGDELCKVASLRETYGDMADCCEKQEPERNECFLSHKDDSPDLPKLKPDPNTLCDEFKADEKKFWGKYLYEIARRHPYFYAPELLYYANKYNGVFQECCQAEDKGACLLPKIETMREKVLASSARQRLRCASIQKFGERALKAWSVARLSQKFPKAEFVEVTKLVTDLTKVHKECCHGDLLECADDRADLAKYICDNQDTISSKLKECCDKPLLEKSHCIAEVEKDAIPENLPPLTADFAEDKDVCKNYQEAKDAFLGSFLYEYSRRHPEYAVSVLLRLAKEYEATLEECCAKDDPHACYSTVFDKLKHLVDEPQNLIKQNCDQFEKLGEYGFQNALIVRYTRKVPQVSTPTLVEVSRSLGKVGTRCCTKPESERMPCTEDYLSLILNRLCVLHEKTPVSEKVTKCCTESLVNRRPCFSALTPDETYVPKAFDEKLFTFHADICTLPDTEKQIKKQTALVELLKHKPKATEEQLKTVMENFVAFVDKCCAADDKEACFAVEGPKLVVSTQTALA

| Compound | Minimum inhibitory concentration, MRSA [1] | Minimum inhibitory concentration, PA [2] | Minimum inhibitory concentration, SA [3] | Minimum inhibitory concentration, ST [4] | Minimum inhibitory concentration, EC [5] | CT-DNA-EB-Complex Ksv (M^−1) × 10^4 [6] | CT-DNA-EB-Complex Kq (M^−1S^−1) × 10^12 [6] | CT-DNA-EB-Complex Kbin (M^−1) × 10^5 [6] | Protein-Complex Kb (M^−1) × 10^4 ([7]; BSA absorption titration, 280 nm, 25 °C) | Antioxidant (IC50 mg/mL) FRAP [8] | hypochromic shift in the absorption bands on addition of CT-DNA ([9]; absorption titration with CT-DNA) | CT-DNA-Cmp. Kb (M^−1) × 10^5 [9, 10] | Protein-Complex Kb (M^−1) × 10^4 [7] | CT-DNA-Cmp. Kb (M^−1) × 10^5 ([9]; pH 7.2) | MIC ([3]; Staphylococcus aureus, ATCC25923, read-out: Minimum inhibitory concentration, SA) | MIC ([5]; Escherichia coli, ATCC25922, read-out: Minimum inhibitory concentration, EC) |
| --- | --- | --- | --- | --- | --- | --- | --- | --- | --- | --- | --- | --- | --- | --- | --- | --- |
| [Ag+].[O-][Cl+3]([O-])([O-])[O-] [AgClO4, silver perchlorate, reference compound] | 6.25 mg/L | 0.8 mg/L | 3.125 mg/L | 0.2 mg/L | 25 mg/L | 3.31 (M^−1) × 10^4 | 3.31 (M^−1S^−1) × 10^12 | 6.00 (M^−1) × 10^5 | 4.82 (M^−1) × 10^4 | 0.88 ± 0.051 mg/mL | 23.64–50.86% | 3.30 (M^−1) × 10^5 |  |  |  |  |
| O=[N+]([O-])[O-].[Ag+] [AgNO3, silver nitrate, reference compound] | 0.2 mg/L | 12.5 mg/L | 3.125 mg/L | 1000 mg/L | 0.8 mg/L | 3.12 (M^−1) × 10^4 | 3.12 (M^−1S^−1) × 10^12 | 4.50 (M^−1) × 10^5 |  | 1.43 ± 0.03 mg/mL |  |  | 4.49 (M^−1) × 10^4 | 3.00 (M^−1) × 10^5 |  |  |
| Fc1ccccc1/N=C/c1ccc2ccccc2n1 [Complex L1, (E)-N-(2-fluorophenyl)-1-(quinolin-2-yl)methanimine] |  |  |  |  |  |  |  |  |  | 22.42 ± 0.0048 mg/mL |  | 1.38 (M^−1) × 10^5 |  |  | 100 mg/L | 1000 mg/L |
| O=[N+]([O-])[O-].[Ag+].c1ccc2nc(-c3nc4ccccc4s3)ccc2c1.c1ccc2nc(-c3nc4ccccc4s3)ccc2c1 [Complex Q2, [Ag(L2)2]NO3] | 50 mg/L | 12.5 mg/L | 25 mg/L | 50 mg/L | 25 mg/L | 2.68 (M^−1) × 10^4 | 2.68 (M^−1S^−1) × 10^12 | 5.03 (M^−1) × 10^5 |  | 1.10 ± 0.0044 mg/mL |  | 3.00 (M^−1) × 10^5 | 7.97 (M^−1) × 10^4 |  |  |  |
| C(=NCc1cccs1)c1ccc2ccccc2n1.C(=NCc1cccs1)c1ccc2ccccc2n1.O=S(=O)([O-])C(F)(F)F.[Ag+] [Complex Q15, [Ag(L5)2]CF3SO3] | 100 mg/L | ~0.8 mg/L |  | 1000 mg/L | 25 mg/L | 2.48 (M^−1) × 10^4 | 2.48 (M^−1S^−1) × 10^12 | 5.29 (M^−1) × 10^5 |  | 3.35 ± 0.012 mg/mL |  | 4.00 (M^−1) × 10^5 | 13.1 (M^−1) × 10^4 |  |  |  |
